Counter-ions that a name gives are not always drawn.
tested on: HER2; experiment: HER2 degradation assay with BT-474 cell line (Example 12, FACS); type: cell-based, human; conditions: not given
Text: HER2 has emerged as a key target for anticancer drugs due to its intrinsic involvement in the phosphatidylinositol-3-kinase-Akt/protein kinase B (PI3K-Akt) and the mitogen-activated protein kinase (MAPK) pathways, both of which suppress apoptosis and promote tumor cell survival, gene transcription, angiogenesis, cellular proliferation, migration, mitosis, and differentiation. The degradation of HER2 is a measure of efficacy of anticancer therapeutics that target Hsp90. Accordingly, the SDC-TRAP molecules of the invention that comprise a binding moiety that binds Hsp90 were tested in the following HER2 degradation assay.
BT-474 cells (human breast cancer cell line ATCC HTB-20) were obtained from ATCC and seeded into 12-well tissue culture plates at 0.2×10^6/1.8 mL/well. […] Each test compound was titrated in 4-fold dilutions from 5 μM to 78 nM with DMSO and 200 μL of the titration was added to each well of the cell plate. The DMSO final concentration was 0.2%. Cells were incubated overnight at 37° C. in 5% CO2.
Media was decanted from the plate, cells were washed 1× in PBS. 400 μL trypsin (EDTA) per well was added, and the cells were incubated for 2 to 3 minutes. Cells were collected into FACS tubes containing 1 ml culture medium to neutralize the trypsin and were centrifuged for 5 minutes at 1200 rpm. Supernatant was decanted and the cells were resuspended in 5 μL FITC (anti HER2/nu)/200 μL staining buffer (1×PBS+1% FBS+0.05% Sodium Azide)/tube. Controls were 5 μL IgG isotype control and staining buffer only. Tubes were incubated for 30 minutes in the dark at room temperature. 1 mL staining buffer was added to each tube and the tubes were centrifuged for 6 minutes at 1200 rpm. The supernatant was decanted and 300 μL staining buffer was added to each tube, which was store at 4° C. fpr FACS (cytometer) analysis. The cytometer readout was normalized and the potency of each compound is evaluated with IC50 calculated with XLfit™ software.

Compound	IC50 [nM]
CCc1c2c(nc3ccc(O)cc13)-c1cc3c(c(=O)n1C2)COC(=O)C3(CC)OC(=O)N1CCN(C(=O)CCc2ccc(-n3c(O)nnc3-c3cc(C(C)C)c(O)cc3O)cc2)CC1 (stereo not shown) [SDC-TRAP-0060, 4,11-diethyl-9-hydroxy-3,14-dioxo-3,4,12,14-tetrahydro-1H-pyrano[3′,4′:6,7]indolizino[1,2-b]quinolin-4-yl 4-(3-(4-(3-(2,4-dihydroxy-5-isopropylphenyl)-5-hydroxy-4H-1,2,4-triazol-4-yl)phenyl)propanoyl)piperazine-1-carboxylate]	> 5000
CCNC(=O)c1nnc(-c2cc(C(C)C)c(O)cc2O)n1-c1ccc(C(=O)N2CCN(c3ccc(OC(=O)Nc4cccc5c4CN(C4CCC(=O)NC4=O)C5=O)c(OC)c3)CC2)cc1 (stereo not shown) [SDC-TRAP-0173, 4-(4-(4-(3-(2,4-dihydroxy-5-isopropylphenyl)-5-(ethylcarbamoyl)-4H-1,2,4-triazol-4-yl)benzoyl)piperazin-1-yl)-2-methoxyphenyl (2-(2,6-dioxopiperidin-3-yl)-1-oxoisoindolin-4-yl)carbamate]	323
CCc1c2c(nc3ccc(OC(=O)N4CCC(CN5CCN(Cc6ccc(-n7c(O)nnc7-c7cc(C(C)C)c(O)cc7O)cc6)CC5)CC4)cc13)-c1cc3c(c(=O)n1C2)COC(=O)[C@]3(O)CC [SDC-TRAP-0088]	221
CCc1c2c(nc3ccc(OC(=O)N4CCC(c5nc6cc(-n7c(O)nnc7-c7cc(C(C)C)c(O)cc7O)ccc6n5C)CC4)cc13)-c1cc3c(c(=O)n1C2)COC(=O)C3(O)CC (stereo not shown) [SDC-TRAP-0095, 4,11-diethyl-4-hydroxy-3,14-dioxo-3,4,12,14-tetrahydro-1H-pyrano[3′,4′:6,7]indolizino[1,2-b]quinolin-9-yl 4-(5-(3-(2,4-dihydroxy-5-isopropylphenyl)-5-hydroxy-4H-1,2,4-triazol-4-yl)-1-methyl-1H-benzo[d]imidazol-2-yl)piperidine-1-carboxylate]	> 5000
CCc1c2c(nc3ccc(OC(=O)N4CCN(Cc5cc6cc(-n7c(O)nnc7-c7cc(C(C)C)c(O)cc7O)ccc6n5C)CC4)cc13)-c1cc3c(c(=O)n1C2)COC(=O)C3(O)CC (stereo not shown) [SDC-TRAP-0073, 4,11-diethyl-4-hydroxy-3,14-dioxo-3,4,12,14-tetrahydro-1H-pyrano[3′,4′:6,7]indolizino[1,2-b]quinolin-9-yl 4-((5-(3-(2,4-dihydroxy-5-isopropylphenyl)-5-hydroxy-4H-1,2,4-triazol-4-yl)-1-methyl-1H-indol-2-yl)methyl)piperazine-1-carboxylate]	478
CCc1c2c(nc3ccc(OC(=O)N4Cc5ccc(-n6c(O)nnc6-c6cc(C(C)C)c(O)cc6O)cc5C4)cc13)-c1cc3c(c(=O)n1C2)COC(=O)C3(O)CC (stereo not shown) [SDC-TRAP-0083, 4,11-diethyl-4-hydroxy-3,14-dioxo-3,4,12,14-tetrahydro-1H-pyrano[3′,4′:6,7]indolizino[1,2-b]quinolin-9-yl 5-(3-(2,4-dihydroxy-5-isopropylphenyl)-5-hydroxy-4H-1,2,4-triazol-4-yl)isoindoline-2-carboxylate]	1440
CCNC(=O)c1nnc(-c2cc(C(C)C)c(O)cc2O)n1-c1ccc(C(=O)N2CCN(c3ccc(OC(=O)Nc4cccc5c4CN(C4CCC(=O)NC4=O)C5=O)c(C)c3)CC2)cc1 (stereo not shown) [SDC-TRAP-0176, 4-(4-(4-(3-(2,4-dihydroxy-5-isopropylphenyl)-5-(ethylcarbamoyl)-4H-1,2,4-triazol-4-yl)benzoyl)piperazin-1-yl)-2-methylphenyl (2-(2,6-dioxopiperidin-3-yl)-1-oxoisoindolin-4-yl)carbamate]	178
CCc1c2c(nc3ccc(OC(=O)N4CCC(CN5CCC(Cc6ccc(-n7c(O)nnc7-c7cc(C(C)C)c(O)cc7O)cc6)CC5)CC4)cc13)-c1cc3c(c(=O)n1C2)COC(=O)C3(O)CC (stereo not shown) [SDC-TRAP-0067, 4,11-diethyl-4-hydroxy-3,14-dioxo-3,4,12,14-tetrahydro-1H-pyrano[3′,4′:6,7]indolizino[1,2-b]quinolin-9-yl 4-((4-(4-(3-(2,4-dihydroxy-5-isopropylphenyl)-5-hydroxy-4H-1,2,4-triazol-4-yl)benzyl)piperidin-1-yl)methyl)piperidine-1-carboxylate]	196
Cc1cc(C(=O)N2CCN(Cc3ccc(-n4c(O)nnc4-c4cc(C(C)C)c(O)cc4O)cc3F)CC2)cc(C)c1OC(=O)Nc1cccc2c1CN(C1CCC(=O)NC1=O)C2=O (stereo not shown) [SDC-TRAP-0168, 4-(4-(4-(3-(2,4-dihydroxy-5-isopropylphenyl)-5-hydroxy-4H-1,2,4-triazol-4-yl)-2-fluorobenzyl)piperazine-1-carbonyl)-2,6-dimethylphenyl (2-(2,6-dioxopiperidin-3-yl)-1-oxoisoindolin-4-yl)carbamate]	276
CCc1c2c(nc3ccc(O)cc13)-c1cc3c(c(=O)n1C2)COC(=O)[C@@]3(CC)OC(=O)N(C)CCN1CCN(Cc2ccc(-n3c(O)nnc3-c3cc(C(C)C)c(O)cc3O)cc2)CC1 [SDC-TRAP-0087, (S)-4,11-diethyl-9-hydroxy-3,14-dioxo-3,4,12,14-tetrahydro-1H-pyrano[3′,4′:6,7]indolizino[1,2-b]quinolin-4-yl (2-(4-(4-(3-(2,4-dihydroxy-5-isopropylphenyl)-5-hydroxy-4H-1,2,4-triazol-4-yl)benzyl)piperazin-1-yl)ethyl)(methyl)carbamate]	535
CCc1c2c(nc3ccc(OC(=O)N(C)CCCN4CCN(Cc5ccc(-n6c(O)nnc6-c6cc(C(C)C)c(O)cc6O)cc5)CC4)cc13)-c1cc3c(c(=O)n1C2)COC(=O)[C@]3(O)CC [SDC-TRAP-0065, (S)-4,11-diethyl-4-hydroxy-3,14-dioxo-3,4,12,14-tetrahydro-1H-pyrano[3′,4′:6,7]indolizino[1,2-b]quinolin-9-yl (3-(4-(4-(3-(2,4-dihydroxy-5-isopropylphenyl)-5-hydroxy-4H-1,2,4-triazol-4-yl)benzyl)piperazin-1-yl)propyl)(methyl)carbamate]	661
CCc1c2c(nc3ccc(O)cc13)-c1cc3c(c(=O)n1C2)COC(=O)C3(CC)OC(=O)N1CCN(Cc2ccc(-n3c(O)nnc3-c3cc(C(C)C)c(O)cc3O)cc2F)CC1 (stereo not shown) [SDC-TRAP-0079, 4,11-diethyl-9-hydroxy-3,14-dioxo-3,4,12,14-tetrahydro-1H-pyrano[3′,4′:6,7]indolizino[1,2-b]quinolin-4-yl 4-(4-(3-(2,4-dihydroxy-5-isopropylphenyl)-5-hydroxy-4H-1,2,4-triazol-4-yl)-2-fluorobenzyl)piperazine-1-carboxylate]	1430
CCc1c2c(nc3ccc(O)cc13)-c1cc3c(c(=O)n1C2)COC(=O)[C@@]3(CC)OC(=O)N1CCC(Oc2ccc(-n3c(O)nnc3-c3cc(C(C)C)c(O)cc3O)cc2)CC1 [SDC-TRAP-0012, (S)-4,11-diethyl-9-hydroxy-3,14-dioxo-3,4,12,14-tetrahydro-1H-pyrano[13′,4′:6,7]indolizino[1,2-b]quinolin-4-yl-4-(4-(3-(2,4-dihydroxy-5-isopropylphenyl)-5-hydroxy-4H-1,2,4-triazol-4-yl)phenoxy)piperidine-1-carboxylate hydrochloride]	> 5000
CCc1c2c(nc3ccc(O)cc13)-c1cc3c(c(=O)n1C2)COC(=O)[C@@]3(CC)OC(=O)N1CCC(N2Cc3ccc(-n4c(O)nnc4-c4cc(C(C)C)c(O)cc4O)cc3C2)CC1 [SDC-TRAP-0092, (S)-4,11-diethyl-9-hydroxy-3,14-dioxo-3,4,12,14-tetrahydro-1H-pyrano[3′,4′:6,7]indolizino[1,2-b]quinolin-4-yl 4-(5-(3-(2,4-dihydroxy-5-isopropylphenyl)-5-hydroxy-4H-1,2,4-triazol-4-yl)isoindolin-2-yl)piperidine-1-carboxylate]	4710
CCc1c2c(nc3ccc(OC(C)=O)cc13)-c1cc3c(c(=O)n1C2)COC(=O)C3(CC)OC(=O)N(C)CCCCN1CCN(Cc2ccc(-n3c(O)nnc3-c3cc(C(C)C)c(O)cc3O)cc2)CC1 (stereo not shown) [SDC-TRAP-0181, 4-(((4-(4-(4-(3-(2,4-Dihydroxy-5-isopropylphenyl)-5-hydroxy-4H-1,2,4-triazol-4-yl)benzyl)piperazin-1-yl)butyl)(methyl)carbamoyl)oxy)-4,11-diethyl-3,14-dioxo-3,4,12,14-tetrahydro-1H-pyrano[3′,4′:6,7]indolizino[1,2-b]quinolin-9-yl acetate]	164

same assay, conditions: BT-474 cells, overnight

Compound	IC50 [nM]
CCOC(=O)c1nnc(-c2cc(C(C)C)c(O)cc2O)n1-c1ccc(CN2CCC(C(=O)N[C@H]3C[C@H](O[C@H]4C[C@](O)(C(=O)CO)Cc5c(O)c6c(c(O)c54)C(=O)c4c(OC)cccc4C6=O)O[C@@H](C)[C@H]3O)CC2)cc1 [SDC-TRAP-0142, ethyl-5-(2,4-dihydroxy-5-isopropylphenyl)-4-(4-((4-(((2S,3S,4S,6R)-3-hydroxy-2-methyl-6-(((1S,3S)-3,5,12-trihydroxy-3-(2-hydroxyacetyl)-10-methoxy-6,11-dioxo-1,2,3,4,6,11-hexahydrotetracen-1-yl)oxy)tetrahydro-2H-pyran-4-yl)carbamoyl)piperidin-1-yl)methyl)phenyl)-4H-1,2,4-triazole-3-carboxylate]	> 10000
